# Measured values reported in US20250257071A9, “TRICYCLIC COMPOUND, METHOD FOR PREPARING SAME, AND USE THEREOF” (Sichuan Kelun-Biotech Biopharmaceutical Co., Ltd., priority 2021, published 2025).
# How the values were obtained:
# human TLR8 = human TLR8 (Homo sapiens (Human), UniProt Q9NR97); test: Agonistic activity of compounds on HEK-Blue hTLR8 cells (QUANTI-Blue reporter, OD620); type: cell-based; settings: for Emax (OD620): OD620 at maximum activation effect
# Method: • 1. HEK-Blue hTLR8 cells (Invivogen) were cultured in DMEM medium (Hyclone) containing 10% FBS heat-inactivated fetal bovine serum (Corning). On the day of detection, the cell state was observed under a microscope, the cells were collected and resuspended, and the cell concentration was adjusted after counting, 50 μL per well, the total amount of cells was 2×10^4, and the cells were inoculated in a 96-well plate. • 2. After the cells adhered to the wall overnight, 50 μL of the test compound at different concentrations was added to the well plate, so that the final concentrations were 100 μM, 25 μM, 6.25 μM, 1.56 μM, 0.39 μM, 0.10 μM, 0.02 μM, 0.006 μM, 0 μM, or 100 μM, 33.3 μM, 11.11 μM, 3.70 μM, 1.23 μM, 0.41 μM, 0.14 μM, 0.05 μM, 0 μM, and the final concentration of DMSO was 1%. The compound was incubated with the cells in a 37° C., 5% CO2 incubator for 20 hours. • 3. After the incubation, observation was performed under microscope to determine the maximum signal well, the state of the cells with the highest and lowest concentrations of the compound, and whether the compound will crystalize at high concentration. 10 μL of cell culture supernatant was transferred to a new 96-well transparent plate, added with 90 μL of QUANTI-Blue (Invivogen) detection reagent to each well, incubated at 37° C. for 3 hours, and OD620 was read with a multifunctional microplate reader (BMG LABTECH). • 4. EC50 was calculated by fitting with Graphpad Prism software log(agonist) vs. Response—Variable slope, and Emax was the OD620 at which the activation effect of the test compound reached the maximum.
# human TLR7 = human TLR7 (Homo sapiens (Human), UniProt Q9NYK1); test: Agonistic activity of compounds on HEK-Blue hTLR7 cells (QUANTI-Blue reporter, OD620); type: cell-based; settings: for Emax (OD620): OD620 at maximum activation effect
# Method: • 1. HEK-Blue hTLR7 cells (Invivogen) were cultured in DMEM medium (Hyclone) containing 10% FBS heat-inactivated fetal bovine serum (Corning). On the day of detection, the cell state was observed under a microscope, the cells were collected and resuspended, and the cell concentration was adjusted after counting, 50 μL per well, the total amount of cells was 2×10^4, and the cells were inoculated in a 96-well plate. • 2. After the cells adhered to the wall overnight, 50 μL of the test compound at different concentrations was added into the well plate, so that the final concentrations were 100 μM, 33.3 μM, 11.11 μM, 3.70 μM, 1.23 μM, 0.41 μM, 0.14 μM, 0.05 μM, 0 μM, and the final concentration of DMSO was 1%. The compound was incubated with the cells in a 37° C., 5% CO2 incubator for 20 h. • 3. After the incubation, observation under microscope was performed to determine the maximum signal well, the states of the cells with the highest and lowest concentrations of the compound, and whether the compound will crystalize at high concentration. 10 μL of cell culture supermatant was taken and transferred to a new 96-well transparent plate, 90 μL of QUANTI-Blue (Invivogen) detection reagent was added to each well, and incubated at 37° C. for 3 h, and OD620 was read with a multifunctional microplate reader (BMG LABTECH). • 4. EC50 was calculated by fitting with Graphpad Prism software log(agonist) vs. response—Variable slope, and Emax was the (D620 at which the activation effect of the test compound reached the maximum.
# human TLR8, sequence (Q9NR97 27-1041): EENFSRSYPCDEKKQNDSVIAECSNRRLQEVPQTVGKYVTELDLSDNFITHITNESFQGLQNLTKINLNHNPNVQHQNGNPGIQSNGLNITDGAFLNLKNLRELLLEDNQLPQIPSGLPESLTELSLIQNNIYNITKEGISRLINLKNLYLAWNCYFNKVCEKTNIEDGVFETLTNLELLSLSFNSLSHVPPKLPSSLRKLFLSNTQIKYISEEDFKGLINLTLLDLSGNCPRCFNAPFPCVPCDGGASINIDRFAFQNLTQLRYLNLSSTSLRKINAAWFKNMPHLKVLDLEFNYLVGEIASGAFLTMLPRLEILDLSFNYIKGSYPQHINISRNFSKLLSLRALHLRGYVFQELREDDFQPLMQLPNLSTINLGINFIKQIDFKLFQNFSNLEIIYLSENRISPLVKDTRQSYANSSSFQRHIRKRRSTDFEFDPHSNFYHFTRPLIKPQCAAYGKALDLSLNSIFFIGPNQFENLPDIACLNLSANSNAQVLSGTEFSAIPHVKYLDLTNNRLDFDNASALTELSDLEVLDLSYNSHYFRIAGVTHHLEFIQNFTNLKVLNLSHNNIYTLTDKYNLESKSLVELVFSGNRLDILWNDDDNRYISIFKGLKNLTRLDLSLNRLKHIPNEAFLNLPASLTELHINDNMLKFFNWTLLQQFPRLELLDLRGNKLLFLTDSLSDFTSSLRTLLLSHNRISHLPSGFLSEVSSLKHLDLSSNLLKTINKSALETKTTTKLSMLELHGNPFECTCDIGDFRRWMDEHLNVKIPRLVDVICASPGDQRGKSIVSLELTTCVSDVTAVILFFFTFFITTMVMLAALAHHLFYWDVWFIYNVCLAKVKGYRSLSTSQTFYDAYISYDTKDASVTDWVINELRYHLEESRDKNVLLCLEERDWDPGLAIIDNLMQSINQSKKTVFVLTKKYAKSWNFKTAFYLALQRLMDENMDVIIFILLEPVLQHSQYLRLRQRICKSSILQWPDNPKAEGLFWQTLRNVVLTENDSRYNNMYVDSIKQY
# human TLR7, sequence (Q9NYK1 27-1049): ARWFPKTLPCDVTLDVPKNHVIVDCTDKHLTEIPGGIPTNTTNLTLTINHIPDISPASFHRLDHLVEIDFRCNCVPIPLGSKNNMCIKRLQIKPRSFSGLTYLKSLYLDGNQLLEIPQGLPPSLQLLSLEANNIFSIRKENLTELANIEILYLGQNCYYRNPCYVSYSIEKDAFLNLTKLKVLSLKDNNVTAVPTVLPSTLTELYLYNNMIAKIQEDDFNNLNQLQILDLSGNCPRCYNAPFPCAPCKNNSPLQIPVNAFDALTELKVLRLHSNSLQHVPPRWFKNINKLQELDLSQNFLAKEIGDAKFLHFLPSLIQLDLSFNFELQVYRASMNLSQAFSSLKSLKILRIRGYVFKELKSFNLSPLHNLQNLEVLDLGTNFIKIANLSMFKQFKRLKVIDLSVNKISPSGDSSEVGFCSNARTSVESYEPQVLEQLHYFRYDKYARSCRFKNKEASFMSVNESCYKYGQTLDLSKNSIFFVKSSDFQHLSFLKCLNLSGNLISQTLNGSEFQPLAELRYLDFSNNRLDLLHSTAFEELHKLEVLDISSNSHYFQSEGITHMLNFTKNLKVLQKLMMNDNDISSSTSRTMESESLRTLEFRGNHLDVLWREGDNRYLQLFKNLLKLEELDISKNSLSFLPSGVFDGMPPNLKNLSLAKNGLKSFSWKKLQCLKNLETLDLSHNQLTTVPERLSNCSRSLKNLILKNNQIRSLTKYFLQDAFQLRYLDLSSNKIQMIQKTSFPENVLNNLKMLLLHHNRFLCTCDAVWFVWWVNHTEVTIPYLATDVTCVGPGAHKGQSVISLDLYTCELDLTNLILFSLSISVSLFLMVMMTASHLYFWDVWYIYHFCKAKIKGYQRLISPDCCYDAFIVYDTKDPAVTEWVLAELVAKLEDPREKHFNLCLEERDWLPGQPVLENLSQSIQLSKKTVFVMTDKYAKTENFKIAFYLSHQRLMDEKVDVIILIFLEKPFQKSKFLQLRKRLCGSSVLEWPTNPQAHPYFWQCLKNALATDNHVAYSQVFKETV
Structure (SMILES),activation effect on human TLR8 (in words) (human TLR8),Emax (OD620) (human TLR8),activation effect on human TLR7 (in words) (human TLR7),Emax (OD620) (human TLR7)
"CCCCc1nc2c(N)nc3cc(C)sc3c2n1CCCCN [Compound 1, 1-(4-aminobutyl)-2-butyl-7-methyl-1H-imidazo[4,5-d]thieno[3,2-b]pyridine-4-amine]",strong activation effect,1.43 OD620,strong activation effect,1.36 OD620
"CCCCc1nc2c(N)nc3ccsc3c2n1CCCCN [Compound 2, 1-(4-aminobutyl)-2-butyl-1H-imidazo[4,5-d]thieno[3,2-b]pyridine-4-amine]",strong activation effect,1.37 OD620,strong activation effect,1.36 OD620
"CCCCc1nc2c(N)nc3cc(C)sc3c2n1CC1CCNCC1 [Compound 3, 2-butyl-7-methyl-1-(piperidin-4-ylmethyl)-1H-imidazo[4,5-d]thieno[3,2-b]pyridine-4-amine]",strong activation effect,1.86 OD620,strong activation effect,1.43 OD620
"COCCc1nc2c(N)nc3ccsc3c2n1CCCCN [Compound 4, 1-(4-aminobutyl)-2-(2-methoxyethyl)-1H-imidazo[4,5-d]thieno[3,2-b]pyridine-4-amine]",–,–,strong activation effect,1.74 OD620
"CCOCc1nc2c(N)nc3ccsc3c2n1CCCCN [Compound 5, 1-(4-aminobutyl)-2-(2-ethoxymethyl)-1H-imidazo[4,5-d]thieno[3,2-b]pyridine-4-amine]",–,–,strong activation effect,1.46 OD620
"CCCCc1nc2c(N)nc3cc(C4CCN(C)CC4)sc3c2[nH]1 [Compound 6, 2-butyl-7-(1-methylpiperidin-4-yl)-1H-imidazo[4,5-d]thieno[3,2-b]pyridine-4-amine]",strong activation effect,1.11 OD620,strong activation effect,1.08 OD620
"CCCCc1nc2c(N)nc3cc(C4=CCN(C)CC4)sc3c2[nH]1 [Compound 8, 2-butyl-7-(1-methyl-1,2,3,6-tetrahydropyridin-4-yl)-1H-imidazo[4,5-d]thieno[3,2-b]pyridine-4-amine]",–,–,strong activation effect,0.56 OD620
"CCCCc1nc2c(N)nc3cc(C)sc3c2n1CC1CCN(CCOCCOCCN)CC1 [Compound 15, 1-((1-(2-(2-(2-aminoethoxy)ethoxy)ethyl)piperidin-4-yl)methyl)-2-butyl-7-methyl-1H-imidazo[4,5-d]thieno[3,2-b]pyridine-4-amine]",–,–,strong activation effect,2.40 OD620
"CCCCc1nc2c(N)nc3cc(C)sc3c2n1CC1CCN(CCOCCOCCOCCOCCOCCOCCOC)CC1 [Compound 16, 1-((1-(2,5,8,11,14,17,20-heptaoxadocosan-22-yl)piperidin-4-yl)methyl)-2-butyl-7-methyl-1H-imidazo[4,5-d]thieno[3,2-b]pyridine-4-amine]",–,–,strong activation effect,2.18 OD620
"CCCCc1nc2c(N)nc3cc(C)sc3c2n1CC1CCN(C(=O)CCOCCOCCN)CC1 [Compound 17, 1-(4-((4-amino-2-butyl-7-methyl-1H-imidazo[4,5-d]thieno[3,2-b]pyridin-1-yl)methyl)piperidin-1-yl)-3-(2-(2-aminoethoxy)ethoxy)propan-1-one]",–,–,strong activation effect,2.23 OD620
"CCCCc1nc2c(N)nc3ccsc3c2n1CC1CCNCC1 [Compound 25, 2-butyl-1-(piperidin-4-ylmethyl)-1H-imidazo[4,5-d]thieno[3,2-b]pyridine-4-amine]",–,–,strong activation effect,2.08 OD620
"CCCCc1nc2c(N)nc3cc(C)sc3c2n1CC1CCOCC1 [Compound 26, 2-butyl-7-methyl-1-((tetrahydro-2H-pyran-4-yl)methyl)-1H-imidazo[4,5-d]thieno[3,2-b]pyridine-4-amine]",–,–,strong activation effect,1.78 OD620
"CCCCc1nc2c(N)nc3ccsc3c2n1CC1CCN(C)CC1 [Compound 27, 2-butyl-1-[(1-methylhexahydropyridin-4-yl)methyl]thieno[3,2-b]imidazo[4,5-d]pyridine-4-amine]",strong activation effect,0.84 OD620,strong activation effect,1.59 OD620
"CCCCc1nc2c(N)nc3cc(C)sc3c2n1CC1CCN(C)CC1 [Compound 28, 2-butyl-7-methyl-1-((1-methylpiperidin-4-yl)methyl)-1H-imidazo[4,5-d]thieno[3,2-b]pyridine-4-amine]",–,–,strong activation effect,1.39 OD620
"CCCCc1nc2c(N)nc3cc(C4CCN(C)CC4)sc3c2n1C [Compound 32, 2-butyl-1-methyl-7-(1-methylpiperidin-4-yl)-1H-imidazo[4,5-d]thieno[3,2-b]pyridine-4-amine]",–,–,strong activation effect,0.91 OD620
"CCCCc1nc2c(N)nc3cc(C4CCN(C)CC4)sc3c2n1CC1CCOCC1 [Compound 34, 2-butyl-7-(1-methylpiperidin-4-yl)-1-((tetrahydro-2H-pyran-4-yl)methyl)-1H-imidazo[4,5-d]thieno[3,2-b]pyridine-4-amine]",–,–,strong activation effect,1.21 OD620
"CCCCc1nc2c(N)nc3cc(C4CCN(C)CC4)sc3c2n1CC1CCN(C)CC1 [Compound 38, 2-butyl-7-(1-methylpiperidin-4-yl)-1-((1-methylpiperidin-4-yl)methyl)-1H-imidazo[4,5-d]thieno[3,2-b]pyridine-4-amine]",–,–,strong activation effect,0.49 OD620
"CCCCc1nc2c(N)nc3cc(C4CCOCC4)sc3c2n1CC1CCN(C)CC1 [Compound 40, 2-butyl-1-((1-methylpiperidin-4-yl)methyl)-7-(tetrahydro-2H-pyran-4-yl)-1H-imidazo[4,5-d]thieno[3,2-b]pyridine-4-amine]",–,–,strong activation effect,1.83 OD620
"CCCCc1nc2c(N)nc3cc(C4CCNCC4)sc3c2n1CC1CCN(CCOC)CC1 [Compound 41, 2-butyl-7-(hexahydropyridin-4-yl)-1-{[1-(2-methoxyethyl)hexahydropyridin-4-yl]methyl}thieno[3,2-b]imidazo[4,5-d]pyridine-4-amine]",–,–,strong activation effect,0.84 OD620
"CCCCc1nc2c(N)nc3cc(C4CCN(C)CC4)sc3c2n1CC1CCN(CCOC)CC1 [Compound 42, 2-butyl-1-{[1-(2-methoxyethyl)hexahydropyridin-4-yl]methyl}-7-(1-methylhexahydropyridin-4-yl)thieno[3,2-b]imidazo[4,5-d]pyridine-4-amine]",–,–,strong activation effect,0.65 OD620
"COCCc1nc2c(N)nc3ccsc3c2n1CC1CCNCC1 [Compound 55, 1-(hexahydropyridin-4-ylmethyl)-2-(2-methoxyethyl) thieno[3,2-b]imidazo[4,5-d]pyridine-4-amine]",–,–,strong activation effect,1.44 OD620
"COCCc1nc2c(N)nc3ccsc3c2n1CC1CCN(C)CC1 [Compound 56, 2-(2-methoxyethyl)-1-[(1-methylhexahydropyridin-4-yl)methyl]thieno[3,2-b]imidazo[4,5-d]pyridine-4-amine]",–,–,strong activation effect,1.41 OD620
